Experimental data: US20050256308A1, “Spiro compounds, medicinal compositions containing the same and intermediates of the compounds” (Dainippon Pharmaceutical Co., Ltd., priority 2002, published 2005)
Structures can show the parent of a compound that is named as a salt.

Legend:
ovariectomized rats [1] = experiment: Effects on climacteric syndrome (hot flash-like symptom): tail skin temperature of ovariectomized rats; format: in vivo, rat; conditions: for Effect on the action of β-estradiol on the tissues involved in the hot flash-like symptom: combined use, summary of Table 3; for Effect on hot flash-like symptom: summary of Table 2
Protocol: The effect of the compound of the present invention on climacteric syndrome was investigated using ovariectomized rats. The ovariectomized rats were prepared by removing the ovary on the both sides from 8-week-old Jcl:SD female rats (manufactured by CLEA Japan, Inc.) under ether anesthesia. The rats were bred under the conditions of illumination for 12 hours (6:00-18:00) every day, room temperature 24±0.5° C., and were allowed free intake of solid feed (CE-2, manufactured by CLEA Japan, Inc.) and water. The rats after 2 weeks of ovariectomy were subjected to the following experiment. The rats to be used for sham surgery group were treated in the same manner except ovariectomy.
The rats after 2 weeks of ovariectomy and sham surgery were subjected to the measurement of tail skin temperature by reference to the method of Hosono et al. (Am. J. Physiol. Regulatory Integrative Comp. Physiol. 280: R1341-R1347, 2001) without anesthesia. To be specific, a temperature sensor (SXK-67, manufactured by TAKARA THERMISTOR) was fixed at 5 cm from the base of the tail of the rats with an adhesive plaster (manufactured by NICHIBAN), and covered with an aluminum plate. The other end of the temperature sensor was connected to a fluclet (manufactured by DAINIPPON PHARMACEUTICAL CO., LTD.) via an amplifier (E332, manufactured by TAKARA THERMISTOR) and measurement and analysis were performed for 2 hr. The results are shown in Table 1, wherein an incidence of a hot flash-like symptom was confirmed at the tail of the ovariectomized rats.
A test compound was dissolved in a solvent (10% aqueous cyclodextrin solution), and orally administered to ovariectomized rats once a day for two consecutive weeks. The tail skin temperature was measured in the same manner as in the aforementioned method on the day of the final administration.

ovariectomized rats [2] = experiment: Effect on decreased femur bone density of ovariectomized rat (pQCT); format: in vivo; conditions: for Bone density: femural metaphysis, oral once a day for 4 weeks; for Effect on decrease in the bone density due to ovariectomy: summary of Table 5(1) and 5(2)
Source text: The ovary on the both sides of 13-week-old Jcl:SD female rats (manufactured by CLEA Japan, Inc.) were removed under ether anesthesia or the rats were subjected to a sham surgery, and a test compound dissolved in 10% aqueous cyclodextrin solution was orally administrated from the next day once a day for 4 consecutive weeks (10 rats/group). The rats were sacrificed by hemorrhage on the next day of the final administration and the left femur was removed. The bone density of the femural metaphysis was measured using pQCT [peripheral Quantitative Computed Tomography, XCT-960A, manufactured by Norland-Stratec].

ovariectomized rats [3] = experiment: Luteinizing hormone (LH) level in serum of ovariectomized rats; format: in vivo; conditions: ovariectomized rat; for Serum LH: oral once a day for two weeks
Protocol: (§1) A test compound was dissolved in 10% aqueous cyclodextrin solution and orally administered to ovariectomized rats once a day for two consecutive weeks. The blood was drawn under ether anesthesia. The blood sample was allowed to coagulate at room temperature for 1 hr and centrifuged at 3000 rpm for 10 min to give serum. The amount of LH in serum was measured using a rat LH radioimmunoassay kit (manufactured by Immunotec Research Ltd., France).

Jcl:SD male rats = experiment: Effect on serum cholesterol level in rat; format: in vivo; conditions: for Blood cholesterol: oral once a day for 4 days; for Blood cholesterol lowering action: summary of Table 6(1) and 6(2)
Protocol: A test compound was dissolved in 10% aqueous cyclodextrin solution, and orally administrated to 7-week-old Jcl:SD male rats (manufactured by CLEA Japan, Inc.) once a day for 4 consecutive days. The blood was drawn on the next day of the final administration, and plasma cholesterol was measured using a measurement kit (cholesterol CII-testwako, manufactured by Wako Pure Chemical Industries, Ltd.).

ovariectomized rats [4] = experiment: Uterus weight of ovariectomized rat (side effects); format: in vivo; conditions: for Uterus weight: ovariectomized rat
Protocol: as §1
To investigate the side effects of the compound of the present invention, the test compound was orally administered consecutively to ovariectomized rats and sham surgery rats in the same manner as in Experimental Example 1b, the uterus was removed and weighed.

[5] = Table 2, oral once a day for two weeks, dose 0.1 mg/kg
[6] = Table 2, oral once a day for two weeks, dose 1.0 mg/kg
[7] = Table 2, oral once a day for two weeks, dose 10.0 mg/kg
[8] = Table 7, oral once a day for two weeks, dose 1.0 mg/kg

SMILES: Cl.Oc1ccc2c(c1)CC[C@@]21C[C@@H](c2ccc(OCCN3CCCCC3)cc2)c2cc(O)ccc21 (relative stereo) [Example 36A, (1R*,3S*)-3-[4-(2-piperidinoethoxy)phenyl]-1,1′-spirobiindan-5,5′-diol hydrochloride]
- Average tail skin temperature (ovariectomized rats [1]; [5]): 29.9 ± 0.4 °C
- Average tail skin temperature (ovariectomized rats [1]; [6]): 29.4 ± 0.4 °C
- Average tail skin temperature (ovariectomized rats [1]; [7]): 29.0 ± 0.4 °C
- Effect on the action of β-estradiol on the tissues involved in the hot flash-like symptom (ovariectomized rats [1]): did not inhibit the action of β-estradiol
- Effect on hot flash-like symptom (ovariectomized rats [1]): improved the hot flash-like symptom

SMILES: Cl.Oc1ccc2c(c1)CCC21C=C(c2ccc(OCCN3CCCCC3)cc2)c2cc(O)ccc21 (single isomer, unassigned; (+)) [Example 37, (+)-3-[4-(2-piperidinoethoxy)phenyl]spiro[indene-1,1′-indan]-5,5′-diol hydrochloride]
- Bone density (ovariectomized rats [2]; Table 5(2), dose 0.01 mg/kg): 551 ± 10 mg/mL
- Bone density (ovariectomized rats [2]; Table 5(2), dose 0.1 mg/kg): 620 ± 15 mg/mL
- Bone density (ovariectomized rats [2]; Table 5(2), dose 1.0 mg/kg): 658 ± 17 mg/mL
- Effect on decrease in the bone density due to ovariectomy (ovariectomized rats [2]): significantly suppressed the decrease in the bone density

SMILES: Oc1ccc2c(c1)CCC21C=C(c2ccc(OCCN3CCCCC3)cc2)c2cc(O)ccc21 (stereo not shown) [Example 1, 3-[4-(2-piperidinoethoxy)phenyl]spiro[indene-1,1′-indan]-5,5′-diol hydrochloride]
- Average tail skin temperature (ovariectomized rats [1]; [5]): 29.4 ± 0.3 °C
- Average tail skin temperature (ovariectomized rats [1]; [6]): 28.9 ± 0.4 °C
- Average tail skin temperature (ovariectomized rats [1]; [7]): 28.0 ± 0.5 °C
- Effect on the action of β-estradiol on the tissues involved in the hot flash-like symptom (ovariectomized rats [1]): did not inhibit the action of β-estradiol
- Effect on hot flash-like symptom (ovariectomized rats [1]): improved the hot flash-like symptom
- Serum LH (ovariectomized rats [3]; dose 1.0 mg/kg): 10.1 ± 0.60 ng/mL
- Effect on increase in the LH amount due to ovariectomy (ovariectomized rats [3]; summary of Table 4): significantly suppressed increase in the LH amount
- Bone density (ovariectomized rats [2]; Table 5(1), dose 1.0 mg/kg): 738.0 ± 47.9 mg/mL
- Effect on decrease in the bone density due to ovariectomy (ovariectomized rats [2]): significantly suppressed the decrease in the bone density
- Blood cholesterol (Jcl:SD male rats; Table 6(1), dose 0.03 mg/kg): 63.1 ± 4.8 mg/dL
- Blood cholesterol (Jcl:SD male rats; Table 6(1), dose 0.1 mg/kg): 53.8 ± 7.3 mg/dL
- Blood cholesterol (Jcl:SD male rats; Table 6(1), dose 0.3 mg/kg): 41.6 ± 5.2 mg/dL
- Blood cholesterol lowering action (Jcl:SD male rats): significant blood cholesterol lowering action at a lower dose than β-estradiol
- Uterus weight (ovariectomized rats [4]; [8]): 178.6 ± 9.3 mg
- Effect on uterus weight of ovariectomized rat (ovariectomized rats [4]; summary of Table 7): does not significantly increase the uterus weight
- Effect on the uterus weight increasing action of β-estradiol (ovariectomized rats [4]; summary of Table 8): significantly suppressed the uterus weight increasing action of β-estradiol

SMILES: CC(C)CN1CCC(c2ccc(C3=CC4(CCc5cc(O)ccc54)c4ccc(O)cc43)cc2)CC1 (stereo not shown) [Example 30, 3-[4-(1-isobutyl-4-piperidinyl)phenyl]spiro[indene-1,1′-indan]-5,5′-diol hydrochloride]
- Blood cholesterol (Jcl:SD male rats; Table 6(2), dose 1.0 mg/kg): 23.6 ± 2.2 mg/dL
- Blood cholesterol lowering action (Jcl:SD male rats): significant blood cholesterol lowering action at a lower dose than β-estradiol

SMILES: C[C@]12CC[C@@H]3c4ccc(O)cc4CC[C@H]3[C@@H]1CC[C@@H]2O [β-estradiol, reference compound]
- Average tail skin temperature (ovariectomized rats [1]; Table 2, oral once a day for two weeks, dose 3.0 mg/kg): 28.4 ± 0.6 °C
- Average tail skin temperature (ovariectomized rats [1]; [7]): 27.7 ± 0.2 °C
- Average tail skin temperature (ovariectomized rats [1]; Table 3, oral once a day for two weeks, single use, dose 3.0 mg/kg): 28.1 ± 0.6 °C
- Serum LH (ovariectomized rats [3]; dose 3.0 mg/kg): 7.6 ± 0.97 ng/mL
- Bone density (ovariectomized rats [2]; Table 5(1), dose 1.0 mg/kg): 767.3 ± 63.9 mg/mL
- Blood cholesterol (Jcl:SD male rats; Table 6(1), dose 0.3 mg/kg): 62.7 ± 7.5 mg/dL
- Blood cholesterol (Jcl:SD male rats; Table 6(1), dose 1.0 mg/kg): 42.8 ± 6.1 mg/dL
- Blood cholesterol (Jcl:SD male rats; Table 6(1), dose 3.0 mg/kg): 25.8 ± 2.0 mg/dL
- Uterus weight (ovariectomized rats [4]; [8]): 406.3 ± 20.6 mg
- Uterus weight (ovariectomized rats [4]; Table 8, single administration, dose 3.0 mg/kg): 491.7 ± 19.6 mg
